The values below come from patent US12110294B2, “CD73 compounds” (Gilead Sciences, Inc., priority 2020, dated 2024).

SMILES strings stand for the structures. Bounds are passed on as bounds.

Assay [1] deals with T1, CD73 activity in MDA-MB-231-GFP cells (Homo sapiens, UniProt P21589).
T1 construct: endogenous in cells; host or cells: MDA-MB-231-GFP cells
T1 sequence (P21589 27-549): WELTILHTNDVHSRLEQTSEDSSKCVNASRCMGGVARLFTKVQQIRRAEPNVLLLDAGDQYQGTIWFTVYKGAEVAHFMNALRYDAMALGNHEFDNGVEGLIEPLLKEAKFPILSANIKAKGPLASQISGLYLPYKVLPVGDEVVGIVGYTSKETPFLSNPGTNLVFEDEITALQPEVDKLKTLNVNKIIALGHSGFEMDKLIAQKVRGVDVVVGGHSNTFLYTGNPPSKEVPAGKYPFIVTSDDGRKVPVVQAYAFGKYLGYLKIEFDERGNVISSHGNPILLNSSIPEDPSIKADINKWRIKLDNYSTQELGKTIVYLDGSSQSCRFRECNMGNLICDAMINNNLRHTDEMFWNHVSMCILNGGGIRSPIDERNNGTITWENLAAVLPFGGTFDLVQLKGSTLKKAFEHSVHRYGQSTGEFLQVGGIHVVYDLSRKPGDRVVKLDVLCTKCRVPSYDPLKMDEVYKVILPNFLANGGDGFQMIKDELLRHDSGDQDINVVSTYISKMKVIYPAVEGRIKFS
The experiment in a line: MDA-MB-231 Cell Based CD73 Activity Assay (DMEM). The note with it: 3000 cells per well, DMEM medium with 10% human plasma, overnight compound treatment, AMP 200 uM.

The next assay addresses T2, CD73 (Homo sapiens, UniProt P21589).
T2 construct: purchased R&D system
T2 sequence (P21589 27-549): T1 sequence (P21589 27-549)
The assay is classed as biochemical. The following applies: 1 mM NaH2PO4 in enzyme buffer, final AMP 15 uM, final CD73 0.3 nM.

Compound `CN(C)C(=O)c1cn2nc(-c3c[nH]c(=O)[nH]c3=O)cc([C@H]3C[C@@H]3c3ccc(F)cc3)c2n1` (racemic) [Example 197, 6-(2,4-dioxo-1H-pyrimidin-5-yl)-8-[(1S,2S)-2-(4-fluorophenyl)cyclopropyl]-N,N-dimethyl-imidazo[1,2-b]pyridazine-2-carboxamide] registered an EC50 in assay [1] of 30.2 nM. Moreover, the IC50 on CD73 is 11 nM.

Compound `O=C(c1cn2nc(-c3c[nH]c(=O)[nH]c3=O)cc([C@H]3C[C@@H]3c3ccc(F)cc3)c2n1)N1C[C@@H](F)[C@@H](F)C1` (racemic) [Example 200, 5-[2-[(3S,4R)-3,4-difluoropyrrolidine-1-carbonyl]-8-[(1S,2S)-2-(4-fluorophenyl)cyclopropyl]imidazo[1,2-b]pyridazin-6-yl]-1H-pyrimidine-2,4-dione] gave a concentration for a half-maximal effect (EC50) in assay [1] of 809 nM. In addition, on CD73, the IC50 was over 250 nM. Consider `O=c1[nH]cc(-c2cc([C@H]3C[C@@H]3c3ccnc(C(F)(F)F)n3)c3nccn3n2)c(=O)[nH]1` (racemic) [Example 271, 5-(8-((2S,2S)-2-(2-(trifluoromethyl)pyrimidin-4-yl)cyclopropyl)imidazo[1,2-b]pyridazin-6-yl)pyrimidine-2,4(1H,3H)-dione], for which the EC50 in assay [1] amounted to 102 nM. The compound further came in with an IC50 against CD73 of 33.6 nM. The compound `O=c1[nH]cc(-c2cc([C@H]3C[C@@H]3c3ccc(OC(F)(F)F)cc3)c3ncc(F)n3n2)c(=O)[nH]1` (racemic) [Example 277, 5-(3-fluoro-8-((2S,2S)-2-(4-(trifluoromethoxy)phenyl)cyclopropyl)imidazo[1,2-b]pyridazin-6-yl)pyrimidine-2,4(1H,3H)-dione] yielded an EC50 in assay [1] of 79 nM. The IC50 on CD73 turned out to be 3.77 nM. The matching figures for `NC(=O)c1ccc([C@H]2C[C@@H]2c2cc(-c3c[nH]c(=O)[nH]c3=O)nn3ccnc23)cc1` (racemic) [Example 283, 4-((2S,2S)-2-(6-(2,4-dioxo-1,2,3,4-tetrahydropyrimidin-5-yl)imidazo[1,2-b]pyridazin-8-yl)cyclopropyl)benzamide]: 2.75 nM and 0.87 nM. As to `O=c1[nH]cc(-c2cc([C@H]3C[C@@H]3c3ccc4cnn(CCC(F)(F)F)c4c3)c3nccn3n2)c(=O)[nH]1` (racemic) [Example 361, 5-(8-((1S,2S)-2-(1-(3,3,3-trifluoropropyl)-1H-indazol-6-yl)cyclopropyl)imidazo[1,2-b]pyridazin-6-yl)pyrimidine-2,4(1H,3H)-dione], in assay [1], the EC50 was found to be 2.53 nM. In addition, 2.72 nM corresponded to half-maximal inhibition against CD73 (IC50).

In assay [1], `N#Cc1nn(CC(F)(F)F)c2cc([C@H]3C[C@@H]3c3cc(-c4c[nH]c(=O)[nH]c4=O)nn4ccnc34)ccc12` (racemic) [Example 362, 6-((1S,2S)-2-(6-(2,4-dioxo-1,2,3,4-tetrahydropyrimidin-5-yl)imidazo[1,2-b]pyridazin-8-yl)cyclopropyl)-1-(2,2,2-trifluoroethyl)-1H-indazole-3-carbonitrile] returned an EC50 of 1 nM. This compound yielded an IC50 against CD73 of 2.98 nM.

The compound `O=c1[nH]cc(-c2cc([C@H]3C[C@@H]3c3cnc(C(F)(F)F)s3)c3nccn3n2)c(=O)[nH]1` (racemic) [Example 365, 5-(8-((2S,2S)-2-(2-(trifluoromethyl)thiazol-5-yl)cyclopropyl)imidazo[1,2-b]pyridazin-6-yl)pyrimidine-2,4(1H,3H)-dione] came in with an EC50 in assay [1] of 32.8 nM. In addition, the IC50 at CD73 came to 7.62 nM. The matching figures for `O=c1[nH]cc(-c2cc([C@H]3C[C@@H]3c3nc(C(F)(F)F)cs3)c3nccn3n2)c(=O)[nH]1` (racemic) [Example 367, 5-(8-((2S,2S)-2-(4-(trifluoromethyl)thiazol-2-yl)cyclopropyl)imidazo[1,2-b]pyridazin-6-yl)pyrimidine-2,4(1H,3H)-dione]: 67.6 nM and 17.5 nM. The compound `O=c1[nH]cc(-c2cc([C@H]3C[C@@H]3c3ccc(C(F)F)cn3)c3nccn3n2)c(=O)[nH]1` (racemic) [Example 379, 5-(8-((1S,2S)-2-(5-(difluoromethyl)pyridin-2-yl)cyclopropyl)imidazo[1,2-b]pyridazin-6-yl)pyrimidine-2,4(1H,3H)-dione] came in with a concentration for a half-maximal effect (EC50) in assay [1] of 5.89 nM. Besides, the IC50 against CD73 is 1.98 nM.

`O=C(NCC(F)(F)F)OC1CN(c2cc(-c3c[nH]c(=O)[nH]c3=O)nn3ncnc23)CC1(F)F` (racemic) [Example 436, 1-(6-(2,4-dioxo-1,2,3,4-tetrahydropyrimidin-5-yl)-[1,2,4]triazolo[1,5-b]pyridazin-8-yl)-4,4-difluoropyrrolidin-3-yl (2,2,2-trifluoroethyl)carbamate] had an EC50 in assay [1] of 0.43 nM. Besides, the midpoint of inhibition on CD73, the IC50, lay at 0.13 nM. The matching figures for `O=c1[nH]cc(-c2cc([C@H]3C[C@@H]3c3ccc(OCC(F)F)cn3)c3nccn3n2)c(=O)[nH]1` (racemic) [Example 590, 5-(8-((2S,2S)-2-(5-(2,2-difluoroethoxy)pyridin-2-yl)cyclopropyl)imidazo[1,2-b]pyridazin-6-yl)pyrimidine-2,4(1H,3H)-dione]: 2.04 nM and 1.05 nM. The matching figures for `O=c1[nH]cc(-c2cc([C@H]3C[C@@H]3c3cnc4cnn(CC(F)(F)F)c4c3)c3nccn3n2)c(=O)[nH]1` (racemic) [Example 614, 5-(8-((1S,2S)-2-(1-(2,2,2-trifluoroethyl)-1H-pyrazolo[4,3-b]pyridin-6-yl)cyclopropyl)imidazo[1,2-b]pyridazin-6-yl)pyrimidine-2,4(1H,3H)-dione]: 0.13 nM and 2.06 nM. The matching figures for `O=c1[nH]cc(-c2cc(N3C[C@H](O)C(F)(F)C3)c3nccn3n2)c(=O)[nH]1` (single isomer, unassigned) [Example 527]: 16.3 nM and 5.66 nM.

The compound `O=c1[nH]cc(-c2cc(N3C[C@@H](O)C(F)(F)C3)c3nccn3n2)c(=O)[nH]1` (single isomer, unassigned) [Example 528] returned an EC50 in assay [1] of 12.9 nM. The same compound showed an IC50 on CD73 of 6.25 nM.

In turn, `O=c1[nH]cc(-c2cc(N3CCC4(C3)CC4(F)F)c3nccn3n2)c(=O)[nH]1` (stereo not shown) [Example 192] came in with an IC50 at CD73 of 6.41 nM. On the same count and under the same terms, then `O=c1[nH]cc(-c2cc(N3CC(OCC(F)(F)F)C(F)(F)C3)c3nccn3n2)c(=O)[nH]1` (stereo not shown) [Example 203], with 3.03 nM; and `COC(=O)[C@H]1[C@@H]2CN(c3cc(-c4c[nH]c(=O)[nH]c4=O)nn4ccnc34)C[C@@H]21` [Example 314, methyl (1R,5S,6r)-3-(6-(2,4-dioxo-1,2,3,4-tetrahydropyrimidin-5-yl)imidazo[1,2-b]pyridazin-8-yl)-3-azabicyclo[3.1.0]hexane-6-carboxylate], with over 250 nM. As for `O=c1[nH]cc(-c2cc([C@H]3C[C@@H]3c3ccc4c(c3)ncn4CC(F)(F)F)c3nccn3n2)c(=O)[nH]1` [Example 324, 5-(8-((1S,2S)-2-(1-(2,2,2-trifluoroethyl)-1H-benzo[d]imidazol-5-yl)cyclopropyl)imidazo[1,2-b]pyridazin-6-yl)pyrimidine-2,4(1H,3H)-dione], in assay [1], the EC50 came out at 1.59 nM. On CD73, this compound returned an IC50 of 1.15 nM. The matching figures for `O=c1[nH]cc(-c2cc([C@H]3C[C@@H]3c3ccc(F)cc3F)n3ncnc3n2)c(=O)[nH]1` [Example 416, 5-(7-((2S,2S)-2-(2,4-difluorophenyl)cyclopropyl)-[1,2,4]triazolo[1,5-a]pyrimidin-5-yl)pyrimidine-2,4(1H,3H)-dione]: 33.5 nM and 0.71 nM. The matching figures for `O=c1[nH]cc(-c2cc([C@H]3C[C@@H]3c3ccc(C(F)(F)F)cc3)n3ncnc3n2)c(=O)[nH]1` [Example 417, 5-(7-((2S,2S)-2-(4-(trifluoromethyl)phenyl)cyclopropyl)-[1,2,4]triazolo[1,5-a]pyrimidin-5-yl)pyrimidine-2,4(1H,3H)-dione]: 12.6 nM and 0.87 nM. As for `O=c1[nH]cc(-c2cc([C@H]3C[C@@H]3c3cc4c(cnn4CC(F)(F)F)cc3F)c3ncc(F)n3n2)c(=O)[nH]1` [Example 613, 5-(3-fluoro-8-((1S,2S)-2-(5-fluoro-1-(2,2,2-trifluoroethyl)-1H-indazol-6-yl)cyclopropyl)imidazo[1,2-b]pyridazin-6-yl)pyrimidine-2,4(1H,3H)-dione], it took 0.71 nM to reach a half-maximal effect in assay [1] (EC50). Also, on CD73, the IC50 amounted to 0.58 nM. Turning to `O=c1[nH]cc(-c2cc(N3C[C@@H]4C[C@H]3C(F)(F)C4)c3nccn3n2)c(=O)[nH]1` [Example 644, 5-(8-(6,6-difluoro-2-azabicyclo[2.2.1]heptan-2-yl)imidazo[1,2-b]pyridazin-6-yl)pyrimidine-2,4(1H,3H)-dione], a half-maximal effect in assay [1] (EC50) was put at 1420 nM. Besides, the IC50 at CD73 is over 250 nM.

In general, EC50 refers to the concentration giving half of the maximal effect. High values mean a need for much substance, low ones an effect from little substance. By IC50 is commonly meant the concentration at which inhibition is half-maximal.
